Test results from publication PMC6934184, “Selective DNA-PKcs inhibition extends the therapeutic index of localized radiotherapy and chemotherapy” (The Journal of Clinical Investigation, 2019).

Biological target: T1, PDGFRA V561D (Homo sapiens, UniProt P16234, V561D)
T1 construct: purchased Thermo Fisher Scientific (Life Technologies) SelectScreen
Test: SelectScreen Z'LYTE
Format: biochemical
In short: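 Percent values come from Thermo SelectScreen profiling of NU5455, combining activity and binding assays. CSF1R was run in Z'LYTE format at Km app ATP, and CAMK1 in Adapta format with ATP listed at 10.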

T1 sequence (P16234 24-1089 V561D): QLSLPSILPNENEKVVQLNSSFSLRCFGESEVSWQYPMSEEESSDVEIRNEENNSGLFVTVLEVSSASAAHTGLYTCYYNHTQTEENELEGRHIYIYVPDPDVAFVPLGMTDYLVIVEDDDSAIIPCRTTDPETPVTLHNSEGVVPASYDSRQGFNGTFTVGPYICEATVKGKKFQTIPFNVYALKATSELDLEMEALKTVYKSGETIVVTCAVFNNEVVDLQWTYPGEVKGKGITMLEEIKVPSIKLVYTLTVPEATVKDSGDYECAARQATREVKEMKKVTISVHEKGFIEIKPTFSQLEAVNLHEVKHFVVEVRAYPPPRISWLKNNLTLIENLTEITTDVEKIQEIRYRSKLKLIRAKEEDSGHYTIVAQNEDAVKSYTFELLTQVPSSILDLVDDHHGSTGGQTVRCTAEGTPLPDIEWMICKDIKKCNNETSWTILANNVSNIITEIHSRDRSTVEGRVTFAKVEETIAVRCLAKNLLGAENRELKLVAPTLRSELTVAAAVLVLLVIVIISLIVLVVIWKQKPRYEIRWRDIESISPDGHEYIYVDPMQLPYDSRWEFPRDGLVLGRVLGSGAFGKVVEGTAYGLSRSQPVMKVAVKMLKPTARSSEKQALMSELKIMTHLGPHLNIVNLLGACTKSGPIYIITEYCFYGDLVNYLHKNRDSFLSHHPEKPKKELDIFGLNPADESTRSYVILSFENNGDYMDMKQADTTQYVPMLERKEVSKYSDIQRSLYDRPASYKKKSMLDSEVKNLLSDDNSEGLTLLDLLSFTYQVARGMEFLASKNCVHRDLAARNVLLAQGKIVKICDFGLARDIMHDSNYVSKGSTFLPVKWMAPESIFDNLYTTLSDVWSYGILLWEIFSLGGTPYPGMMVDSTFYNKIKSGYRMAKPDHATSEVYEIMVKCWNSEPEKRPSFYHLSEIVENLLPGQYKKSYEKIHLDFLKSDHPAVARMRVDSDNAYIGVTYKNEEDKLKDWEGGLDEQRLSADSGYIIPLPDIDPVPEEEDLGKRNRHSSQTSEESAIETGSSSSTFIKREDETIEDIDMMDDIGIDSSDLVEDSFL

In the case of CN(C(=O)CN1CCOCC1)c1ccc2sc3c(-c4cccc5c(=O)cc(N6CC7CCC(C6)O7)oc45)cccc3c2c1 [NU5455], the inhibition at 1 µM is reported as -2.3%.
